Source: patent publication US10723711B2, “1,1,1-trifluoro-3-hydroxypropan-2-yl carbamate derivatives and 1,1,1-trifluoro-4-hydroxybutan-2-yl carbamate derivatives as MAGL inhibitors” (PFIZER INC., priority 2015, dated 2020)
Where two headings read alike, the source gives them in different places.

Key:
[1] = Prodrug in vivo pharmacokinetics in rats after intravenous administration (LC-MS-MS of prodrug and parent); details: Wistar Hann rats; for Cmax: Wistar Hann, rat, iv
Method: (§1) Pharmacokinetic parameters derived from the plasma analytical data were determined using Watson LIMS 7.2.003 (Thermo Fisher Scientific, Waltham, Mass.).

[2] = biological target: T1, human recombinant Monoacylglycerol Lipase (Homo sapiens, UniProt Q99685); assay: MAGL inhibition enzymatic assay, fluorogenic substrate 7-HCA, IC50 at T=0 min or after 30 minute incubation (T=30 min); format: biochemical; details: geometric mean of 2-4 determinations unless otherwise indicated
T1 sequence (Q99685 1-303): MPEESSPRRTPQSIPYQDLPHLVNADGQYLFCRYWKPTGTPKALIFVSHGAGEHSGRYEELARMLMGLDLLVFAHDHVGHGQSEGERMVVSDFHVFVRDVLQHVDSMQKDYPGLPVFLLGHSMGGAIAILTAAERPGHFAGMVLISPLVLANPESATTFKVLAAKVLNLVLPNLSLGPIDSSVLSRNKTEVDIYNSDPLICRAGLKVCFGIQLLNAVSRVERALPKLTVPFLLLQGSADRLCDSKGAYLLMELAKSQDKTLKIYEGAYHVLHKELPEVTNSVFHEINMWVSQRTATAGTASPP
Method: An equal volume of 7-HCA in assay buffer with 10% DMSO was added either immediately (T=0 min) or after a 30 minute incubation (T=30 min) to initiate the reaction. […] After these dilutions, the final concentration of the test compound ranged from 3 μM to 0.03 nM. […] IC50 values were generated based on a four parameter fit model using ABASE software from IDBS.

[3] = biological target: T2, human recombinant FAAH (Homo sapiens, UniProt O00519); assay: FAAH inhibition enzymatic assay, fluorescent substrate Arachidonoyl-AMC, 30 minute incubation; format: biochemical; details: T = 30 min (30 minute incubation); geometric mean of 2-4 determinations unless otherwise indicated
T2 construct: purchased Cayman 10010183
T2 sequence (O00519 1-579): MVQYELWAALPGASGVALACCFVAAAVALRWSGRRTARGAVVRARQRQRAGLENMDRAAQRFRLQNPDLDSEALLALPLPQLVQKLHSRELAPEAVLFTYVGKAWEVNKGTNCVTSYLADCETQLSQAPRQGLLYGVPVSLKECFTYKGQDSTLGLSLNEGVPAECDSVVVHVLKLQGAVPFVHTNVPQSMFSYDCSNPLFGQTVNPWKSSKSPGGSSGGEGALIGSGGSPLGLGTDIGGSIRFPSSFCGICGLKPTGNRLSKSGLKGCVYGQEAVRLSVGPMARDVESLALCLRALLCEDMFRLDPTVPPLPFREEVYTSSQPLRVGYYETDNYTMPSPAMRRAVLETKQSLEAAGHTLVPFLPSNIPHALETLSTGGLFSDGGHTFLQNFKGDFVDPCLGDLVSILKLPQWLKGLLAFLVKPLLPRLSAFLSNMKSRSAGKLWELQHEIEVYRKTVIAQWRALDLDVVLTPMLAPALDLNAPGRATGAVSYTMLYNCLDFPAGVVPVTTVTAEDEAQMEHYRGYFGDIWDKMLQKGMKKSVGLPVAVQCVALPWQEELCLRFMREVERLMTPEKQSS

[4] = Prodrug in vivo pharmacokinetics in dogs after intravenous administration (LC-MS-MS of prodrug and parent); details: Beagle dogs
Method: as §1

[5] = biological target: T1, human recombinant Monoacylglycerol Lipase; assay: MAGL inactivation, enzyme progress curves, kinact/KI; format: biochemical; details: from enzyme progress curves, T = 0 min protocol; geometric mean of 2-4 determinations unless otherwise indicated
In short: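 Human recombinant MAGL ([…]) with compound, 7-HCA substrate (final 5 μM) added immediately (T=0 min), in pH 7.4 HEPES buffer with 0.1% Triton X-100 and 25% glycerin. Fluorescence (Ex/Em 340/465) was read every minute over 60 min, giving progress curves at decreasing compound concentrations (final 3 μM to 0.03 nM).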

[6] = Example 6 (parent) in plasma, IV Example 32 at 2 mg/kg, Mean
[7] = Example 6 (parent) in plasma, IV Example 32 at 2 mg/kg, Rat 03
[8] = Example 6 (parent) in plasma, IV Example 32 at 2 mg/kg, Rat 04
[9] = T = 0 min (substrate added immediately), read-out: MAGL (T = 0 min) IC50
[10] = T = 30 min (30 minute incubation), read-out: MAGL (T = 30 min) IC50
[11] = Example 6 (parent) in plasma, IV Example 32 at 1 mg/kg, Dog 03
[12] = Example 6 (parent) in plasma, IV Example 32 at 1 mg/kg, Dog 04
[13] = Example 6 (parent) in plasma, IV Example 32 at 1 mg/kg, Mean
[14] = Example 9 (parent) in plasma, IV Example 31 at 1.48 mg/kg, Mean
[15] = Example 9 (parent) in plasma, IV Example 31 at 1.48 mg/kg, Rat 01
[16] = Example 9 (parent) in plasma, IV Example 31 at 1.48 mg/kg, Rat 02
[17] = Example 9 (parent) in plasma, IV Example 31 at 0.7 mg/kg, Dog 01
[18] = Example 9 (parent) in plasma, IV Example 31 at 0.7 mg/kg, Dog 02
[19] = Example 9 (parent) in plasma, IV Example 31 at 0.7 mg/kg, Mean

O=C(O[C@H](CO)C(F)(F)F)N1CCC2(CC1)CN(S(=O)(=O)c1ccc(F)cc1)CCO2 [Example 6, (2R)-1,1,1-Trifluoro-3-hydroxypropan-2-yl 4-[(4-fluorophenyl)sulfonyl]-1-oxa-4,9-diazaspiro[5.5]undecane-9-carboxylate]
% AUC Extrap [1, 6]: 3.46% | AUC [1, 6]: 158 ng·h/mL | AUC Extrap [1, 6]: 162 ng·h/mL | Rate Constant [1, 6]: 2.22 h⁻¹ | Tmax [1, 6]: 3.48 min | T½ [1, 6]: 20.5 min | % AUC Extrap [1, 7]: 6.04% | AUC [1, 7]: 102 ng·h/mL | AUC Extrap [1, 7]: 109 ng·h/mL | Rate Constant [1, 7]: 2.86 h⁻¹ | Tmax [1, 7]: 4.98 min | T½ [1, 7]: 14.5 min | % AUC Extrap [1, 8]: 0.880% | AUC [1, 8]: 213 ng·h/mL | AUC Extrap [1, 8]: 215 ng·h/mL | Rate Constant [1, 8]: 1.57 h⁻¹ | Tmax [1, 8]: 1.98 min | T½ [1, 8]: 26.5 min | Cmax ([1]; plasma, 2 mg/kg, Example 6 (parent) in plasma, IV Example 32 at 2 mg/kg, Mean): 309 ng/mL | Cmax ([1]; plasma, 2 mg/kg, Example 6 (parent) in plasma, IV Example 32 at 2 mg/kg, Rat 03): 234 ng/mL | Cmax ([1]; plasma, 2 mg/kg, Example 6 (parent) in plasma, IV Example 32 at 2 mg/kg, Rat 04): 384 ng/mL | IC50 [2, 9]: 83 nM | IC50 [2, 10]: 7 nM | melting point: 132 °C | IC50 [3]: > 30000 nM | AUC [4, 11]: 591 ng·h/mL | AUC Extrap [4, 11]: 595 ng·h/mL | Tmax [4, 11]: 4.98 min | T½ [4, 11]: 246 min | AUC [4, 12]: 705 ng·h/mL | AUC Extrap [4, 12]: 710 ng·h/mL | Tmax [4, 12]: 4.98 min | T½ [4, 12]: 322 min | AUC [4, 13]: 648 ng·h/mL | AUC Extrap [4, 13]: 653 ng·h/mL | Tmax [4, 13]: 4.98 min | T½ [4, 13]: 284 min | MAGL kinact/KI [5]: 13406 1/s per M

O=C(O[C@H](CO)C(F)(F)F)N1CCC2(CC1)C[C@@H](NS(=O)(=O)c1ccccc1)CO2 [Example 9, (2R)-1,1,1-Trifluoro-3-hydroxypropan-2-yl (3R)-3-[(phenylsulfonyl)amino]-1-oxa-8-azaspiro[4.5]decane-8-carboxylate]
% AUC Extrap [1, 14]: 2.46% | AUC [1, 14]: 146 ng·h/mL | AUC Extrap [1, 14]: 150 ng·h/mL | Rate Constant [1, 14]: 0.500 h⁻¹ | Tmax [1, 14]: 4.98 min | T½ [1, 14]: 84.6 min | % AUC Extrap [1, 15]: 2.08% | AUC [1, 15]: 118 ng·h/mL | AUC Extrap [1, 15]: 121 ng·h/mL | Rate Constant [1, 15]: 0.560 h⁻¹ | Tmax [1, 15]: 4.98 min | T½ [1, 15]: 74.4 min | % AUC Extrap [1, 16]: 2.83% | AUC [1, 16]: 173 ng·h/mL | AUC Extrap [1, 16]: 178 ng·h/mL | Rate Constant [1, 16]: 0.440 h⁻¹ | Tmax [1, 16]: 4.98 min | T½ [1, 16]: 94.2 min | Cmax ([1]; in vivo, 1.48 mg/kg, Example 9 (parent) in plasma, IV Example 31 at 1.48 mg/kg, Mean): 316 ng/mL | Cmax ([1]; in vivo, 1.48 mg/kg, Example 9 (parent) in plasma, IV Example 31 at 1.48 mg/kg, Rat 01): 253 ng/mL | Cmax ([1]; in vivo, 1.48 mg/kg, Example 9 (parent) in plasma, IV Example 31 at 1.48 mg/kg, Rat 02): 378 ng/mL | IC50 [2, 9]: 40 nM | IC50 [2, 10]: 4 nM | IC50 [3]: > 30000 nM | AUC [4, 17]: 1350 ng·h/mL | AUC Extrap [4, 17]: 1550 ng·h/mL | Tmax [4, 17]: 15 min | T½ [4, 17]: 642 min | AUC [4, 18]: 1460 ng·h/mL | AUC Extrap [4, 18]: 1560 ng·h/mL | Tmax [4, 18]: 4.98 min | T½ [4, 18]: 482 min | AUC [4, 19]: 1410 ng·h/mL | AUC Extrap [4, 19]: 1560 ng·h/mL | Tmax [4, 19]: 10.2 min | T½ [4, 19]: 562 min | MAGL kinact/KI [5]: 8588 1/s per M
